Data from US20070134660A1, “Methods for identifying modulators of kinesin activity” (ROSETTA INPHARMATICS LLC, priority 2003, published 2007).

Experiments:
[1] = target: T1, KIF14 V342-K720 MD protein (SEQ ID NO:4) (Homo sapiens, UniProt Q15058); assay: KIF14 motor domain microtubule-dependent ATPase assay (Quinaldine Red); type: biochemical; details: n = 2
T1 construct: made in house; host or cells: E. coli BL21 (DE3)
T1 sequence (Q15058 with tags, fused parts or gaps): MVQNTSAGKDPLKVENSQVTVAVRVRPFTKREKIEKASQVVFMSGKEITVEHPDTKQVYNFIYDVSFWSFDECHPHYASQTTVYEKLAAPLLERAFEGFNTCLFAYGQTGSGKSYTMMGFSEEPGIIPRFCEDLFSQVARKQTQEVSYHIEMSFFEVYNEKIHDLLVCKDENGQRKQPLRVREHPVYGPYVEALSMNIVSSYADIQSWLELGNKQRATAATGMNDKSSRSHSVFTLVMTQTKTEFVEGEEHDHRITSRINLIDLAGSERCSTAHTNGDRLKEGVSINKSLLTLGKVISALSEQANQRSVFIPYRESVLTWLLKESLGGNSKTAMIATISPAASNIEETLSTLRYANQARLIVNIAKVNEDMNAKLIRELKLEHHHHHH
Description: KIF14 Motor Domain Assay: KIF14 MDs were assayed for microtubule (MT)-dependent ATP hydrolysis by measuring the rate of inorganic phosphate (Pi) release using the dye Quinaldine Red, which absorbs light of 540 nm when bound to Pi. Assays (50 microliters) contained 50 mM K-PIPES pH 6.9 (which contains 90 mM KCl), 1 mM EGTA pH 8.0, 1 mM DTT, 100 micrograms/mL BSA, 2 mM MgCl2, 1 mM Na-ATP pH 7.0, 0.25-5 micromolar MT (which contain equimolar amounts of Taxol®), and 20-200 nM KIF14 MD enzyme. Reactions were initiated by the addition of enzyme and allowed to proceed at room temperature until they were quenched at regular time intervals by the addition of 50 microliters of 1.8 M KCl, 50 mM EDTA. To this was added 150 microliters of the Quinaldine Red dye solution (0.07 mg/mL quinaldine red, 0.09% polyvinyl alcohol, 4.1 mM ammonium molybdate, and 380 mM H2SO4). After 10 min incubation at room temperature, absorbance at 540 nm was read on a Molecular Devices Microtiter plate reader. Rates were calculated using the linear (steady-state) phase of the reaction.
Suitability of K14 Motor Domains for high-throughput screening: The motor domain assay was as described above, using 50 mM MES pH 6.0, 20 mM added KCl, 0.5 micromolar MTs, a temperature of 37° C., and varying enzyme concentration from 0 to 10 nM. The signal to background ratio, calculated as the amount of Pi formed after a 90 minute incubation in the presence of enzyme relative to in the absence of enzyme, was determined using different concentrations of the V342-K720 motor domain (SEQ ID NO:4), and is shown in Table 9. A high enough signal over background was obtained at low enzyme concentrations to allow high-through-put screening (HTS). Moreover, the V342-K720 motor domain (SEQ ID NO:4) was stable in the reaction for at least 90 minutes.
Screen for KIF14 Modulators: The ATPase assay described in EXAMPLE 7, as optimized in EXAMPLE 8, was used to screen for compounds that modulated the activity of the KIF14 V342-K720 MD protein (SEQ ID NO:4).

[2] = target: T2, CENP-E (SEQ ID NO:19) (Homo sapiens, UniProt Q02224); assay: CENP-E motor domain ATPase assay; type: biochemical; details: read-out: uKHC, nKHC, CENP-E, MKLP-1, KIF1B, MCAK ATPase IC50
T2 construct: His6 (printed only as 'H')
T2 sequence (Q02224 with tags, fused parts or gaps): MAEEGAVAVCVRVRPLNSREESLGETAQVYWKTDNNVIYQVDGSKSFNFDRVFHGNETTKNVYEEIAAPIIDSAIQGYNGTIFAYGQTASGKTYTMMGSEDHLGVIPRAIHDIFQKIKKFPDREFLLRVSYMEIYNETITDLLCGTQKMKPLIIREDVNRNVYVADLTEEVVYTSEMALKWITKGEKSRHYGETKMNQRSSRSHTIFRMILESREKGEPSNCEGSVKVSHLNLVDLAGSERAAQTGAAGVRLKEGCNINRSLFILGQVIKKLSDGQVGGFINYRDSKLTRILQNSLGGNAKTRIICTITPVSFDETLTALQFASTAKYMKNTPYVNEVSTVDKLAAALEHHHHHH

[3] = target: T3, KIF1B (SEQ ID NO:21) (Homo sapiens, UniProt O60333); assay: KIF1B motor domain ATPase assay; type: biochemical; details: read-out: uKHC, nKHC, CENP-E, MKLP-1, KIF1B, MCAK ATPase IC50
T3 construct: His6 (printed only as 'H')
T3 sequence (O60333 with tags, fused parts or gaps): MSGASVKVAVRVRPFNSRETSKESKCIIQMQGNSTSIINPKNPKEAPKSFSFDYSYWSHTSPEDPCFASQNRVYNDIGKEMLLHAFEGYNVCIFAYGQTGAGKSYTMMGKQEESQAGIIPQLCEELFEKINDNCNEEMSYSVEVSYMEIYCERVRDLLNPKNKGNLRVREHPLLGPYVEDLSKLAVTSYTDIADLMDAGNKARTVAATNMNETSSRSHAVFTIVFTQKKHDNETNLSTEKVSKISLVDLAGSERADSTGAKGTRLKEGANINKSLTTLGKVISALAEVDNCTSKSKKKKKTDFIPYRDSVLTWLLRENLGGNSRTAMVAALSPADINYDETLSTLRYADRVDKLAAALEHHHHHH

[4] = system: A2780 cells; assay: alamarBlue cell growth assay, candidate KIF14 modulators in A2780 cells; type: cell-based; details: Homo sapiens, 48 hour incubation; for EC50: read-out: EC50 (nM), Growth Inhibition in A2780 Cells; for inhibition at 0.0137 µM: [Compound] 13.7 nM; for inhibition at 0.0141 µM: [Compound] 14.1 nM; for inhibition at 0.123 µM: [Compound] 123 nM; for inhibition at 0.37 µM: [Compound] 370 nM; for inhibition at 1.111 µM: [Compound] 1111 nM; for inhibition at 3.333 µM: [Compound] 3333 nM; for inhibition at 10 µM: [Compound] 10000 nM
Description: alamarBlue™ Assay for Cell Growth: The alamarBlue™ assay is a measure of cellular respiration and is used as a measure of live cell number. The internal environment of the proliferating cell is more reduced than that of non-proliferating cells. Specifically, the ratios of NADPH/NADP, FADH/FAD, FMNH/FMN, and NADH/NAF increase during proliferation. alamarBlue™ can be reduced by these metabolic intermediates and, therefore, can be used to monitor cell proliferation.
A2780 cells were plated at a density of 4000/cells per well in RPMI1640 (containing 10% FBS, 1% Pen/Strep, 0.01 mg/ml insulin) in a 96-well plate (Costar, Cat. No. 3606) 16 hours prior to treatment. A compound dilution plate was prepared from a 10 mM stock solution using a 3-fold serial dilution series in DMSO. A 1.2 microliter aliquot of each concentration was transferred into 0.6 ml of medium. A 100 microliter aliquot of each concentration was added to the appropriate wells already containing 100 microliters of compound-free medium. After a 48 hour incubation at 37° C., 20 microliters of alamarBlue™ was added to each well (10% vol/vol). After an additional 6 hour incubation at 37° C., the plates were read on a spectrofluorimeter SpectroMax Gemini (excitation 544 nm, emission 590 nm). The background value (averaged from wells with no cells) was subtracted from each reading.

SMILES: NC(=S)N/N=C\c1ccc(-c2ccccc2)cc1 [compound 1, 1,1′-biphenyl-4-carbaldehyde thiosemicarbazone]
- IC50 [1]: 182 nM
- IC50 [2]: > 40 µM
- IC50 [3]: > 40 µM
- EC50 [4]: > 10000 nM
- inhibition at 0.0137 µM [4]: -4.5%
- inhibition at 0.0141 µM [4]: 11.6%
- inhibition at 0.123 µM [4]: -10.3%
- inhibition at 0.37 µM [4]: 19%
- inhibition at 1.111 µM [4]: 18.7%
- inhibition at 3.333 µM [4]: 23.6%
- inhibition at 10 µM [4]: 31.3%

SMILES: CC(C)c1ccc(/C=N/NC(N)=S)cc1[N+](=O)[O-] [compound 4, 4-isopropyl-3-nitrobenzaldehyde thiosemicarbazone]
- IC50 [1]: 54 nM
- IC50 [2]: > 40 µM
- IC50 [3]: > 40 µM
- EC50 [4]: 7980 nM
- inhibition at 0.0137 µM [4]: -7%
- inhibition at 0.0141 µM [4]: -4%
- inhibition at 0.123 µM [4]: -9.2%
- inhibition at 0.37 µM [4]: 4.4%
- inhibition at 1.111 µM [4]: 7.5%
- inhibition at 3.333 µM [4]: 25%
- inhibition at 10 µM [4]: 61.8%

SMILES: NC(=S)N/N=C/c1ccc(C2CCCCC2)cc1 [compound 3, 4-cyclohexylbenzaldehyde thiosemicarbazone]
- IC50 [1]: 76 nM
- IC50 [2]: > 40 µM
- IC50 [3]: > 40 µM
- EC50 [4]: 3600 nM
- inhibition at 0.0137 µM [4]: -5.3%
- inhibition at 0.0141 µM [4]: -8.1%
- inhibition at 0.123 µM [4]: -10.4%
- inhibition at 0.37 µM [4]: 7.8%
- inhibition at 1.111 µM [4]: 6%
- inhibition at 3.333 µM [4]: 39.8%
- inhibition at 10 µM [4]: 107%

SMILES: CC(C)c1ccc(/C=N/NC(N)=S)cc1 [compound 2, 4-isopropylbenzaldehyde thiosemicarbazone]
- IC50 [1]: 895 nM
- IC50 [2]: > 40 µM
- IC50 [3]: > 40 µM
